Assay [1] concerns human oral squamous carcinoma cells (HSC-2 cell line). On the set-up: method as in Hou et al. [41]. The conditions noted are these: 24 h incubation; ref Hou et al. [41]; cited from earlier work.
Assay [2] relates to SCC-15 cells. Briefly: Tetrazolium salts reduction (XTT) assay. It counts as cell-based, human. How it is done: (§1) Biological effect of alvaxanthone and rheediaxanthone B on normal (BJ) and cancer cells (U-118 MG and SCC-15) was estimated using two viability assays, the neutral red uptake (NR) and tetrazolium salts reduction (XTT) assays.
(§2) Thus, alvaxanthone may be damaging mitochondria and impairing their metabolism exerting one of possible mechanisms active in destroying cancer cells. Changes of cell morphology in dependence on increasing alvaxanthone and rheediaxanthone B concentration were also recorded. While the glioma and squamous carcinoma cells formed clusters, lost their adhesion, shrank, and accumulated less NR dye, normal fibroblasts preserved rather normal shapes but the amount of the neutral red dye and confluence of cells decreased. In addition, a lower number of BJ cells was detected (Figure 1B).
(§3) Influence of selected compounds on cells was tested by performing the cytotoxicity (NR and XTT) assays, proliferation assay, cell adhesion assay, cell migration assay, determination of intracellular ATP level, and apoptosis assay as previously reported.
(Tetrazolium assays rely on reduction of a dye to a coloured formazan, in cell work by metabolically active cells.)

The test system of assay [3] is U-118 MG cells. Briefly: Tetrazolium salts reduction (XTT) assay. The following applies: U-118 MG vs BJ, 48 h. It counts as cell-based, human. The method, then: as §1, §2, §3
The test system of assay [4] is normal human gingival fibroblasts (HGF). On the set-up: method as in Hou et al. [41]. The conditions noted are these: 24 h incubation; ref Hou et al. [41]; cited from earlier work.
Assay [5] concerns U-118 MG human glioblastoma cells. Briefly: Cytotoxicity, neutral red uptake (NR) assay. The class given is cell-based. The following applies: U-118 MG. How it is done:
as §1
(§4) Human glioblastoma cells U-118 MG (ATCC® HTB-15), human squamous carcinoma cells SCC-15 (ATCC® CRL-1623), and normal human skin fibroblasts (ATCC® CRL-2522) were grown, their morphology checked, and number and viability estimated as earlier presented.
as §3

Assay [6] concerns SCC-15 human squamous carcinoma cells. Kind of assay: Cytotoxicity, neutral red uptake (NR) assay. The following applies: for IC50: read-out: IC50. The class given is cell-based. The method, then:
as §1, §4, §3

For assay [7], the system named is BJ cells. Briefly: Intracellular ATP level (CellTiterGlo). The following applies: 48-h incubation, normal fibroblasts. It counts as cell-based, human. How it is done:
(§5) Figure 4 Changes of caspase-3/7 activities and intracellular ATP level in BJ, U-118 MG, and SCC-15 cells after 48-h incubation with 5–40 µM alvaxanthone or rheediaxanthone B. Median results are presented of three independent experiments, each performed in triplicate. The whiskers are lower (25%) and upper (75%) quartile ranges.
(§6) On the other hand, rheediaxanthone B caused a reduction of ATP level down to around 30% in glioma cells and fibroblasts, and to 20% in squamous carcinoma cells (Figure 4). In general, with increasing Caspase-3/7 activity the ATP level was decreasing, in accord with the results of Reference.
as §3

For assay [8], the system named is SCC-15 cells. Briefly: Intracellular ATP level (CellTiterGlo). It counts as cell-based, human. The conditions noted are these: 48-h incubation, SCC-15. The method, then:
as §5, §6, §3
Background: ATP-based viability assays read luminescence as a measure of living cells.

For assay [9], the system named is U-118 MG cells. Briefly: Intracellular ATP level (CellTiterGlo). The class given is cell-based, human. The following applies: 48-h incubation, glioma cells. The method, then: as §5, §6, §3
Assay [10] relates to C. elegans. Briefly: Toxicity to C. elegans (population growth). The conditions noted are these: Caenorhabditis elegans, read-out: LC50 (reduction of growth of the nematode population). The method, then: C. elegans was maintained as previously described. The effect of the compounds studied on C. elegans population growth was determined as earlier presented.

Data on one molecule can be found in PMC7356228, “Alvaxanthone, a Thymidylate Synthase Inhibitor with Nematocidal and Tumoricidal Activities” (Molecules, 2020).

Molecules are shown by their SMILES. Read-outs that look alike come from different tables or passages of the source.

As for `C=CC(C)(C)c1c(O)cc2oc3c(O)c(O)cc(CC=C(C)C)c3c(=O)c2c1O` [Alvaxanthone (15), Alvaxanthone], the IC50 (in general, the concentration needed to halve the response being measured) was 22 µM in assay [1]; 17 µM in assay [2] (Homo sapiens, SCC-15); 25 µM in assay [4]; 13.1 µM in [5] (neutral red assay, read-out: IC50); 17 µM in assay [6] (Homo sapiens, SCC-15, neutral red assay); 17.7 µM in [6] (neutral red assay). In addition, the “selectivity: more sensitive compared to BJ fibroblasts” value in [2] (SCC-15 vs BJ, 48 h) came out at 5.3 fold; in [3] it was 2.7 fold. Moreover, the viability (usually a per cent measure of how many cells are alive, often set against a control) at 40 µM was found to be 10% in assay [5] (NR assay, 40 µM, 48 h) and 1.5% in assay [6] (Homo sapiens, NR assay, 40 µM, 48 h). In addition, the “change of ATP level” value in assay [7] was “slight decrease”; in assay [8] it was “dramatically reduced”; in [9], “unaltered”. Besides, the LC50 (usually the concentration that kills 50% of the test population) in assay [10] was 4.6 ± 0.57 µM.
